# Patent US20240360060A1, “6-HYDROXY-CANNABIDIOL-C4” (GW RESEARCH LIMITED, priority 2021, published 2024)
# Where “and” joins values, the source holds several entries; their conditions need not be identical. Equal values may be shown once. Read-outs that look alike come from different tables or passages of the source.
# How the values were obtained:
# [1] = tested on: MES model of generalised seizure; details: earlier filing WO 2020/104796; cited from earlier work
# [2] = tested on: mouse model of generalised seizure (tonic hind limb extensor convulsions); assay: mini-MEST (maximal electroshock seizure threshold) test in the mouse; details: 30 min post dose
# Procedure: The maximal electroshock seizure threshold (MEST) test is widely utilized preclinically to evaluate pro- or anti-convulsant properties of test compounds (Loscher et al., 1991).
# In the MEST test the ability of a drug to alter the seizure threshold current required to induce hind limb tonic extensor convulsions is measured according to an “up and down” method of shock titration (Kimball et al., 1957). An increase in seizure threshold is indicative of anti-convulsant effect.
# The ability of a test compound to alter the stimulus intensity, expressed as current (mA), required to induce the presence of tonic hind limb extensor convulsions, is assessed in the MEST.
# Naïve mice were acclimatized to the procedure room in their home cages for up to 7 days, with food and water available ad libitum.
# All animals were weighed at the beginning of the study and randomly assigned to treatment groups based on a mean distribution of body weight across groups.
# The first animal within a treatment group was given a shock at the expected or estimated CC50 current. For subsequent animals, the current was lowered or raised depending on the convulsions outcome from the preceding animal in log scale intervals.
# Data generated from each treatment group were used to calculate the CC50±SEM values for the treatment group.
# The test compound, described herein as Compound I, are as shown as Formula I. Test compound was administered at 150 mg/kg (i.p.) in a 1:2:17 ethanol:solutol:0.9% saline formulation.
# The data for each treatment group were recorded as the number of +'s and 0's at each current level employed and this information is then used to calculate the CC50 value (current required for 50% of the animals to show seizure behaviour)±standard error.
# Test compound effects were also calculated as percentage change in CC50 from the vehicle control group.
# Significant difference between drug-treated animals and controls were assessed according to Litchfield and Wilcoxon (1949).
# [3] = Bioanalysis of Compound I in plasma and brain (UPLC-MS/MS); format: in vivo, mice; details: 150 mg/kg i.p., 30 min post-dose, mouse; for concentration at 30 min: ip, 150 mg/kg
# Procedure: Each animal was humanely killed immediately after production of a convulsion by destruction of the brain from striking the cranium, followed by the confirmation of permanent cessation of the circulation from decapitation under The Humane Killing of Animals under Schedule 1 to the Animals (Scientific Procedures) Act 1986. Terminal blood and brain collection were performed following decapitation.
# Blood was collected in Lithium-heparin tubes and centrifuged at 4° C. for 10 minutes at 1500×g. The resulting plasma was removed (>100 μL) and split into 2 aliquots of 0.5 mL Eppendorf tubes containing 10 μL of ascorbic acid (100 mg/mL) for stabilisation. Brains were removed, washed in saline and halved. Each half was placed into separate 2 mL screw cap cryovials, weighed and frozen on cardice.
# Bioanalysis experiments were carried out to determine the quantitative measurement of Compound I in plasma and brain.
# Six mice were dosed with Compound I at 150 mg/kg via intraperitoneal (i.p) injection. Sample analysis was performed 30 min post-dose using a sample volume of 40 μL. Following addition of internal standard (in acetonitrile) and Isopropanol samples were protein precipitated by addition of acetonitrile. Samples were centrifuged and supernatant transferred to a clean 96-well plate (with addition of Tween to minimise non-specific binding to plate materials), evaporated to dryness then reconstituted in suitable solvent. The extracts quantified by ultraperformance liquid chromatography-tandem mass spectromtry (UPLC-MS/MS).
compound,measurement,setting,value
"C=C(C)[C@@H]1CCC(C)=C[C@H]1c1c(O)cc(CCCC)cc1O [CBD-C4, Cannabidiol-C4]",anti-convulsant activity,[1],Therapeutic efficacy was shown
"C=C(C)[C@@H]1C[C@H](O)C(C)=C[C@H]1c1c(O)cc(CCCC)cc1O [Compound I, (1′R,2′R,4′S)-4-butyl-5′-methyl-2′-(prop-1-en-2-yl)-1′,2′,3′,4′-tetrahydro-[1,1′-biphenyl]-2,4′,6-triol]",tonic hind limb convulsions in treatment group,"[2]; 150 mg/kg i.p., 6 animals",did not have any convulsions
same,CC50 +/- SEM (current required for 50% of the animals to show seizure behaviour),"[2]; 150 mg/kg i.p., N=6",>131 mA
same,Conc. in brain (individual animals; head: Plasma Conc.),[3]; brain,17.696 µM and 200.472 µM and 183.889 µM and 173.842 µM and 212.516 µM and 228.344 µM
same,concentration at 30 min,"[3]; brain, brain, n=6, read-out: Mean conc. in brain (head: Mean Plasma Conc.)",169 µM
same,concentration at 30 min,"[3]; plasma, plasma, n=6, read-out: Mean Plasma Conc.",255 µM
same,Plasma Conc. (individual animals),[3]; plasma,379.642 µM and 242.369 µM and 47.322 µM and 295.516 µM and 268.44 µM and 299.404 µM
"CN1C(=O)CN=C(c2ccccc2)c2cc(Cl)ccc21 [Diazepam, diazepam, reference compound]",% change from vehicle (CC50),[2]; 2.5 mg/kg i.p.,291%
